# Assay results: patent US10315994B2, “Photostable compounds, absorbing compounds and uses thereof” (Commonwealth Scientific and Industrial Research Organisation, priority 2015, dated 2019)
# Entries after “also recorded” stand apart in the source; their conditions may differ.
# Experiments:
# [1] = Photostability of thin films exposed to xenon arc lamp; type: physicochemical; conditions: for % λmax (% of original absorbance remaining): absorbance at λmax, irradiated vs unirradiated; for % λmax (% of original absorbance remaining) / % abs total (% of original absorbance remaining): xenon arc lamp 1 hour, thin film; for % abs total (% of original absorbance remaining): sum of absorbance 290-400 nm
# Protocol: 1 mL of a 3% solution of the test compound (30 mg of test compound in 1 mL solvent) was prepared in a solvent mix made up of 50% EtOH and 25% capric/caprylic triglyceride and 25% C12-C15 alkyl benzoate. 50 μL of this solution (containing 1.5 mg of test compound) was added carefully to the centre of a glass microscope slide and the volatile components left to evaporate in the dark for at least 3 hours to give a liquid film. […] The irradiation was performed in a fume cupboard where the air flow was sufficient to keep sample T<30° C. One hour's exposure represented a calculated radiation dose (using meter) of approximately 100 MED.
# In order to calculate the photostability of the test compounds, the exposed slides were placed in a beaker and rinsed with 2×5 mL EtOH, 1×5 mL MeOH. The combined washings were then added to a 100 mL volumetric flask and made up to 100 mL total volume with methanol. The UV absorbance was then measured in a 10 mm cuvette. The percent stability is measured as the ratio of absorbance at λmax for the irradiated sample compared to the unirradiated sample. As a further measure, a comparison of the sum of the absorbance in the 290-400 nm range was calculated.
# The thin films are a good surrogate for testing the stability of a candidate in a sunscreen formulation as they use cosmetic emollients as solvent and are formed at cosmetically relevant concentrations.
# [2] = UV/visible absorbance characteristics (λmax, λcrit, ε, E 1%,1 cm); type: physicochemical
# [3] = Table 1, in M-1 cm-1 (unit assumed)
# [4] = Table 6, in M-1 cm-1 (unit assumed)
# [5] = Table 5, in M-1 cm-1 (unit assumed)
# [6] = Table 2, in M-1 cm-1 (unit assumed)
smiles,measurement,setting,value
CCC(=O)C1=CN(CC(C)C)CCC1(C)C [Compound 1],% λmax (% of original absorbance remaining),[1],21%
same,"Photostability, % remaining after irradiation",[1]; exposure to the lamp for 1 h,21%
same,% abs total (% of original absorbance remaining),[1],24%
CC1(C)CCN(c2ccc(Cc3ccc(N4C=C(C(=O)C(F)(F)F)C(C)(C)CC4)cc3)cc2)C=C1C(=O)C(F)(F)F [Compound 108],"E (1%, 1 cm)",[2]; Table 1,1051
same,λcrit,[2]; Table 1,363 nm
same,λmax,[2]; Table 1,341 nm
same,ε,[2]; [3],60770
CC1(C)CCN(C(C)(C)C)C=C1C(=O)C(Cl)(Cl)Cl [Compound 169],"E (1%, 1 cm)",[2]; Table 6,497
same,λcrit,[2]; Table 6,361 nm
same,λmax,[2]; Table 6,334 nm
same,ε,[2]; [4],16618
same,Fate under irradiation,[1],effectively destroyed
same,Photostability (%),[1]; Table 6,5%
Cc1c(N2C=C(C(=O)C(F)(F)F)C(C)(C)CC2)cccc1N1C=C(C(=O)C(F)(F)F)C(C)(C)CC1,"E (1%, 1 cm)",[2]; Table 5,1495
same,λcrit,[2]; Table 5,346 nm
same,λmax,[2]; Table 5,326 nm
same,ε,[2]; [5],75074
CCCCC(CC)CN(c1ccc(C(=O)C2=CN(C(C)(C)C)CCC2(C)C)cc1)c1ccc(C(=O)C2=CN(C(C)(C)C)CCC2(C)C)cc1 (stereo not shown) [Compound 136],λmax,[2]; Table 1,~340 nm
same,% λmax (% of original absorbance remaining),[1],49%
same,"Photostability, % remaining after irradiation",[1]; exposure to the lamp for 1 h,49%
same,% abs total (% of original absorbance remaining),[1],56%
CC1(C)CCN(C(C)(C)C)C=C1C(=O)c1c(F)cccc1F [Compound 184],Photostability (%),"[1]; Table 7, benzoyl derivatives",90%
CC1(C)CCN(c2ccccc2)C=C1C(=O)C(F)(F)F [Compound 106],"E (1%, 1 cm)",[2]; Table 1,1033
same,λcrit,[2]; Table 1,357 nm
same,λmax,[2]; Table 1,335 nm
same,ε,[2]; [3],29040
same,Peak point of absorbance curve (figure legend),"[2]; unirradiated control, FIGS. 3-5",approximately 335 nm
same,% λmax (% of original absorbance remaining),[1],97%
same,% decomposed after irradiation,[1]; exposure to the lamp for 1 h,less than 5%
same,% abs total (% of original absorbance remaining),[1],97%
CC(C)(C)Oc1ccc(C(=O)C2=CN(C(C)(C)C)CCC2(C)C)cc1 [Compound 88],Photostability (%),"[1]; Table 7, benzoyl derivatives",38%
CC1(C)CCN(C(C)(C)C)C=C1C(=O)c1ccc(Br)cc1 [Compound 76],Photostability (%),"[1]; Table 7, benzoyl derivatives",85%
CC1(C)CCN(C(C)(C)C)C=C1C(=O)C(Br)(Br)Br [Compound 170],"E (1%, 1 cm)",[2]; Table 6,321
same,λcrit,[2]; Table 6,361 nm
same,λmax,[2]; Table 6,330 nm
same,ε,[2]; [4],14203
same,Fate under irradiation,[1],effectively destroyed
same,Photostability (%),[1]; Table 6,13%
CCC(=O)C1=CN(c2ccccc2)CCC1(C)C [Compound 23],% λmax (% of original absorbance remaining),[1],30%
same,% abs total (% of original absorbance remaining),[1],31%
CC1(C)CCN(c2cccc(N3C=C(C(=O)C(F)(F)C(F)(F)C(F)(F)F)C(C)(C)CC3)c2)C=C1C(=O)C(F)(F)C(F)(F)C(F)(F)F [Compound 159],"E (1%, 1 cm)",[2]; Table 1,875
same,λcrit,[2]; Table 1,366 nm
same,λmax,[2]; Table 1,348 nm
same,ε,[2]; [3],60200
same,"E (1%, 1 cm)",[2]; Table 4,875
same,ε,"[2]; Table 4, in M-1 cm-1 (unit assumed)",60200
same,Photostability (% remains),[1]; 1 h irradiation,91%
CC(C)(C)CC(C)(C)N1C=C(C(=O)/C=C/c2ccc(/C=C/C(=O)C3=CN(C(C)(C)CC(C)(C)C)CCC3(C)C)cc2)C(C)(C)CC1,Photostability (%),[1]; Table 5,<5%
"CCCCC(CC)CN(c1ccc(C(=O)C2=CN(C(C)(C)C)CCC2(C)C)cc1)c1ccc(C(=O)C2=CN(C(C)(C)C)CCC2(C)C)cc1 (stereo not shown) [drawing 95, (((2-ethylhexyl)azanediyl)bis(4,1-phenylene))bis((1-(tert-butyl)-4,4-dimethyl-1,4,5,6-tetrahydropyridin-3-yl)methanone)]",UV λmax,[2]; synthesis section,316 nm
same,ε,[2]; synthesis section,41598 M⁻¹ cm⁻¹
Br.CCC(=O)C1=CN(CC(C)C)CCC1(C)C [Compound 44],% λmax (% of original absorbance remaining),[1],56%
same,"Photostability, % remaining after irradiation",[1]; exposure to the lamp for 1 h,56%
same,% abs total (% of original absorbance remaining),[1],56%
"CC1(C)CCN(C(C)(C)C)C=C1C(=O)/C=C/c1ccc(/C=C/C(=O)C2=CN(C(C)(C)C)CCC2(C)C)cc1 [(2E,2′E)-3,3′-(1,4-phenylene)bis(1-(1-(tert-butyl)-4,4-dimethyl-1,4,5,6-tetrahydropyridin-3-yl)prop-2-en-1-one)]",UV λmax,[2]; synthesis section,386 nm
same,ε,[2]; synthesis section,36404 M⁻¹ cm⁻¹
CC1(C)CCN(c2ccc(N3C=C(C(=O)C(F)(F)C(F)(F)C(F)(F)F)C(C)(C)CC3)cc2)C=C1C(=O)C(F)(F)C(F)(F)C(F)(F)F [Compound 158],"E (1%, 1 cm)",[2]; Table 1,750
same,λcrit,[2]; Table 1,388 nm
same,λmax,[2]; Table 1,369 nm
same,ε,[2]; [3],51600
same,"E (1%, 1 cm)",[2]; Table 2,750
same,λcrit,[2]; Table 2,388 nm
same,λmax,[2]; Table 2,369 nm
same,ε,[2]; [6],51600
CC(C)CN1C=C(C(=O)C(F)(F)F)C(C)(C)CC1 [Compound 146],% λmax (% of original absorbance remaining),[1],89%
same,% abs total (% of original absorbance remaining),[1],88%
CC(C)CN1C=C(C(=O)C(c2ccccc2)c2ccccc2)C(C)(C)CC1 [Compound 16],% λmax (% of original absorbance remaining),[1],35%
same,% abs total (% of original absorbance remaining),[1],37%
CC(C)CN1C=C(C(=O)C(C)(C)C)C(C)(C)CC1 [Compound 145],% λmax (% of original absorbance remaining),[1],60%
same,% abs total (% of original absorbance remaining),[1],60%
CC1(C)CCN(C(C)(C)C)C=C1C(=O)c1ccncc1 [Compound 58],Photostability (%),"[1]; Table 7, benzoyl derivatives",78%
CC1(C)C=CN(c2ccccc2)C=C1C(=O)C(F)(F)F [Compound 105],"E (1%, 1 cm)",[2]; Table 1,263
same,λcrit,[2]; Table 1,391 nm
same,λmax,[2]; Table 1,384 nm
same,ε,[2]; [3],7393
CC1(C)CCN(C(C)(C)C)C=C1C(=O)c1c(F)c(F)c(F)c(F)c1F [Compound 185],λmax,"[2]; Table 7, benzoyl derivatives",315 nm
"CCCCCCCC(=O)C1=CN(C(C)(C)C)CCC1(C)C [319, 2]",% λmax (% of original absorbance remaining),[1],45%
same,"Photostability, % remaining after irradiation",[1]; exposure to the lamp for 1 h,over 40%
same,% abs total (% of original absorbance remaining),[1],47%
CC1(C)CCN(c2ccc(Oc3ccc(N4C=C(C(=O)C(F)(F)F)C(C)(C)CC4)cc3)cc2)C=C1C(=O)C(F)(F)F [Compound 111],"E (1%, 1 cm)",[2]; Table 1,923
same,λcrit,[2]; Table 1,365 nm
same,λmax,[2]; Table 1,343 nm
same,ε,[2]; [3],53548
CC(C)CN1C=C(C(=O)c2ccccc2)C(C)(C)CC1 [Compound 11],Photostability (%),"[1]; Table 7, benzoyl derivatives",59%
same,% λmax (% of original absorbance remaining),[1],59%
same,"Photostability, % remaining after irradiation",[1]; exposure to the lamp for 1 h,59%
same,% abs total (% of original absorbance remaining),[1],63%
CC1(C)CCN(C(C)(C)C)C=C1C(=O)CC(=O)c1ccccc1 [Compound 94],% λmax (% of original absorbance remaining),[1],11%
same,"Photostability, % remaining after irradiation",[1]; exposure to the lamp for 1 h,less than 20%
same,Colour change on exposure to irradiation,[1]; film,goes from bright yellow to colourless; also recorded: became perfectly colourless
same,% abs total (% of original absorbance remaining),[1],21%
CN(C(=O)C1=CN(C(C)(C)C)CCC1(C)C)c1ccccc1 [Compound 70],% λmax (% of original absorbance remaining),[1],9%
same,% abs total (% of original absorbance remaining),[1],14%
CC1(C)CCN(C(C)(C)C)C=C1C(=O)c1ccccc1 [Compound 179],"Photostability, % remaining after irradiation",[1]; exposure to the lamp for 1 h,76%
Cc1ccc(N2C=C(C(=O)C(F)(F)F)C(C)(C)CC2)cc1N1C=C(C(=O)C(F)(F)F)C(C)(C)CC1,"E (1%, 1 cm)",[2]; Table 5,1315
same,λcrit,[2]; Table 5,358 nm
same,λmax,[2]; Table 5,339 nm
same,ε,[2]; [5],66020
CC1(C)CCN(c2ccc(N3C=C(C(=O)C(F)(F)F)C(C)(C)CC3)cc2)C=C1C(=O)C(F)(F)F [Compound 116],"E (1%, 1 cm)",[2]; Table 1,1120
same,λcrit,[2]; Table 1,386 nm
same,λmax,[2]; Table 1,367 nm
same,ε,[2]; [3],54658
same,"E (1%, 1 cm)",[2]; Table 2,1120
same,λcrit,[2]; Table 2,387 nm
same,λmax,[2]; Table 2,367 nm
same,ε,[2]; [6],54658
CCCCNc1ccc(C(=O)C2=CN(C(C)(C)C)CCC2(C)C)cc1 [Compound 102],"E (1%, 1 cm)",[2]; Table 1,628
CC1(C)CCN(c2ccc(N3C=C(C(=O)C(F)(F)F)C(C)(C)CC3)cc2)CC1 [Compound 117],"E (1%, 1 cm)",[2]; Table 1,657
same,λcrit,[2]; Table 1,382 nm
same,λmax,[2]; Table 1,349 nm
same,ε,[2]; [3],25890
Cc1cc(N2C=C(C(=O)C(F)(F)F)C(C)(C)CC2)ccc1N1C=C(C(=O)C(F)(F)F)C(C)(C)CC1,"E (1%, 1 cm)",[2]; Table 5,1170
same,λcrit,[2]; Table 5,369 nm
same,λmax,[2]; Table 5,347 nm
same,ε,[2]; [5],58853
CN(C)c1ccc(C(=O)C2=CN(C(C)(C)C)CCC2(C)C)cc1 [Compound 86],Photostability (%),"[1]; Table 7, benzoyl derivatives",30%
same,"Photostability, % remaining after irradiation",[1]; exposure to the lamp for 1 h,30%
CCC(=O)C1=CN(c2ccc(Oc3ccc(N4C=C(C(=O)CC)C(C)(C)CC4)cc3)cc2)CCC1(C)C [Compound 118],ε,[2]; [3],56063
CC1(C)CCN(C(C)(C)C)C=C1C(=O)C(F)(F)C(F)(F)C(F)(F)C(=O)C1=CN(C(C)(C)C)CCC1(C)C [drawing 123],"E (1%, 1 cm)",[2]; Table 5,1177
same,λcrit,[2]; Table 5,337 nm
same,λmax,[2]; Table 5,317 nm
same,ε,[2]; [5],63346
"CCCCCCC(=O)C1=CN(c2ccc(N3C=C(C(=O)CCCCCC)C(C)(C)CC3)cc2)CCC1(C)C [1,1′-(1,4-phenylenebis(4,4-dimethyl-1,4,5,6-tetrahydropyridine-1,3-diyl))bis(heptan-1-one)]",UV λmax,[2]; synthesis section,359 nm
same,ε,[2]; synthesis section,70222 M⁻¹ cm⁻¹
Cc1ccc(NC(=O)C2=CN(C(C)(C)CC(C)(C)C)CCC2(C)C)cc1NC(=O)C1=CN(C(C)(C)CC(C)(C)C)CCC1(C)C [Compound 161],% λmax (% of original absorbance remaining),[1],55%
